PubChem BioAssay AID248 (DTP/NCI, 2004)
Where “and” joins values, the source holds several entries; their conditions need not be identical. Identical values can stand only once. Toxic doses and inconclusive results are not listed. No stated cut-off is given here; in the data, active means T/C of 150% or more; inactive means T/C below 125%.

Test system: L1210 leukemia ip in BDF1 mice, survival T/C
Experiment: NCI In Vivo Anticancer Drug Screen. Data for tumor model L1210 Leukemia (intraperitoneal) in B6D2F1 (BDF1) mice
Settings: endpoint: mean survival time, higher = longer survival
Outline: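 Ratio derived from survival: compound-dosed mice over vehicle-dosed mice, all bearing a transplantable tumor.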

[1] = dose: 100.0 mg/kg/injection, schedule: Q01DX001 (ip), vehicle: carboxymethylcellulose (CMC)
[2] = dose: 100.0 mg/kg/injection, schedule: Q04DX003 (ip), vehicle: Klucel (hydroxypropylcellulose) (HPC)
[3] = dose: 200.0 mg/kg/injection, schedule: Q01DX001 (ip), vehicle: carboxymethylcellulose (CMC)
[4] = dose: 200.0 mg/kg/injection, schedule: Q04DX003 (ip), vehicle: Klucel (hydroxypropylcellulose) (HPC)
[5] = dose: 400.0 mg/kg/injection, schedule: Q01DX001 (ip), vehicle: carboxymethylcellulose (CMC)
[6] = dose: 400.0 mg/kg/injection, schedule: Q04DX003 (ip), vehicle: Klucel (hydroxypropylcellulose) (HPC)
[7] = dose: 50.0 mg/kg/injection, schedule: Q01DX009 (ip), vehicle: saline with Tween-80
[8] = dose: 100.0 mg/kg/injection, schedule: Q01DX009 (ip), vehicle: saline with Tween-80
[9] = dose: 100.0 mg/kg/injection, schedule: Q04DX003 (ip), vehicle: saline with Tween-80
[10] = dose: 200.0 mg/kg/injection, schedule: Q04DX003 (ip), vehicle: saline with Tween-80
[11] = dose: 100.0 mg/kg/injection, schedule: Q01DX001 (ip), vehicle: saline
[12] = dose: 200.0 mg/kg/injection, schedule: Q01DX001 (ip), vehicle: saline
[13] = dose: 25.0 mg/kg/injection, schedule: Q01DX009 (ip), vehicle: saline
[14] = dose: 50.0 mg/kg/injection, schedule: Q01DX009 (ip), vehicle: saline
[15] = dose: 100.0 mg/kg/injection, schedule: Q01DX009 (ip), vehicle: saline
[16] = dose: 100.0 mg/kg/injection, schedule: Q04DX003 (ip), vehicle: saline
[17] = dose: 200.0 mg/kg/injection, schedule: Q01DX009 (ip), vehicle: Klucel (hydroxypropylcellulose) (HPC)
[18] = dose: 400.0 mg/kg/injection, schedule: Q01DX009 (ip), vehicle: Klucel (hydroxypropylcellulose) (HPC)
[19] = dose: 400.0 mg/kg/injection, schedule: Q04DX003 (ip), vehicle: saline with Tween-80

Measured: T/C

O=[N+]([O-])c1c[c]([Hg][Cl])c(O)[c]([Hg][Cl])c1
inactive: dose: 3.13 mg/kg/injection, schedule: Q01DX009 (ip), vehicle: saline with Tween-80 88 % of control | dose: 3.13 mg/kg/injection, schedule: Q04DX002 (ip), vehicle: saline with Tween-80 107 % of control | dose: 3.13 mg/kg/injection, schedule: Q04DX003 (ip), vehicle: saline with Tween-80 88 % of control | dose: 6.25 mg/kg/injection, schedule: Q01DX009 (ip), vehicle: saline with Tween-80 86 % of control | dose: 6.25 mg/kg/injection, schedule: Q04DX002 (ip), vehicle: saline with Tween-80 96 % of control | dose: 6.25 mg/kg/injection, schedule: Q04DX003 (ip), vehicle: saline with Tween-80 97 % of control | dose: 12.5 mg/kg/injection, schedule: Q01DX009 (ip), vehicle: saline with Tween-80 91 % of control | dose: 12.5 mg/kg/injection, schedule: Q04DX002 (ip), vehicle: saline with Tween-80 93 % of control | dose: 12.5 mg/kg/injection, schedule: Q04DX003 (ip), vehicle: saline with Tween-80 87 % of control

C[S+]1C=Cc2ccccc2C1c1ccc(Cl)cc1 (stereo not drawn)
inactive: dose: 25.0 mg/kg/injection, schedule: Q04DX002 (ip), vehicle: Klucel (hydroxypropylcellulose) (HPC) 117 % of control

Cc1ccc(N=C=C(c2ccc(Cl)cc2)c2ccc(Cl)cc2)cc1
inactive: dose: 1.56 mg/kg/injection, schedule: Q01DX009 (ip), vehicle: DMSO 104 % of control | dose: 3.12 mg/kg/injection, schedule: Q01DX009 (ip), vehicle: DMSO 93 % of control | dose: 6.25 mg/kg/injection, schedule: Q01DX009 (ip), vehicle: DMSO 97 % of control and 103 % of control | dose: 12.5 mg/kg/injection, schedule: Q04DX002 (ip), vehicle: DMSO 105 % of control | dose: 25.0 mg/kg/injection, schedule: Q04DX002 (ip), vehicle: DMSO 109 % of control

O=C(O)CSCc1cccc2ccccc12
inactive: [1] 91 % of control | [2] 98 % of control | [3] 93 % of control | [4] 94 % of control | [5] 91 % of control | [6] 105 % of control

COc1cc(NC(=O)Nc2cccc(Cl)c2)c(OC)cc1Cl
inactive: dose: 25.0 mg/kg/injection, schedule: Q04DX002 (ip), vehicle: saline with Tween-80 99 % of control | dose: 50.0 mg/kg/injection, schedule: Q04DX002 (ip), vehicle: saline with Tween-80 99 % of control | dose: 100.0 mg/kg/injection, schedule: Q04DX002 (ip), vehicle: saline with Tween-80 96 % of control

CCNC(C)(C)C(S)c1ccc(Cl)s1 (stereo not drawn)
inactive: [7] 106 % of control | [8] 114 % of control | [9] 103 % of control | [10] 94 % of control

CN(C)CC(O)c1ccc2oc3ccccc3c2c1 (stereo not drawn)
inactive: [11] 90 % of control | [12] 97 % of control

S=C(n1ccnc1)n1ccnc1
inactive: [13] 100 % of control | dose: 25.0 mg/kg/injection, schedule: Q04DX003 (ip), vehicle: saline 106 % of control | [14] 95 % of control | dose: 50.0 mg/kg/injection, schedule: Q04DX003 (ip), vehicle: saline 105 % of control | [15] 103 % of control | [16] 103 % of control | dose: 150.0 mg/kg/injection, schedule: Q01DX009 (ip), vehicle: saline 94 % of control | dose: 225.0 mg/kg/injection, schedule: Q01DX009 (ip), vehicle: saline 92 % of control

CCCCC1(C(C)C)C(=O)NC(=O)N(C)C1=O (stereo not drawn)
inactive: dose: 75.0 mg/kg/injection, schedule: Q01DX001 (ip), vehicle: saline 100 % of control | dose: 150.0 mg/kg/injection, schedule: Q01DX001 (ip), vehicle: saline 105 % of control

O=C(Nc1ccccc1C(F)(F)F)N(CCO)C1CCCCC1
inactive: dose: 100.0 mg/kg/injection, schedule: Q01DX009 (ip), vehicle: Klucel (hydroxypropylcellulose) (HPC) 100 % of control | [17] 103 % of control | [18] 101 % of control

CCCSC(CCc1cnc(N)nc1C)SCCC
inactive: dose: 400.0 mg/kg/injection, schedule: Q04DX002 (ip), vehicle: Klucel (hydroxypropylcellulose) (HPC) 94 % of control

NC(CSCc1ccccc1)CSCc1ccccc1
inactive: [13] 101 % of control | [14] 100 % of control | [15] 105 % of control

C[PH+](c1ccccc1)c1ccccc1.C[PH+](c1ccccc1)c1ccccc1.O=C([S-])[S-].[Pt+2]
inactive: dose: 75.0 mg/kg/injection, schedule: Q04DX003 (ip), vehicle: saline 97 % of control | dose: 150.0 mg/kg/injection, schedule: Q04DX003 (ip), vehicle: saline 92 % of control | dose: 300.0 mg/kg/injection, schedule: Q04DX003 (ip), vehicle: saline 100 % of control

CCCC(C)(O)C(C)(C)C (stereo not drawn)
inactive: [1] 106 % of control | [3] 106 % of control | [5] 90 % of control

Cc1c([N+](=O)[O-])sc2ccccc12
inactive: [11] 97 % of control | [12] 97 % of control | dose: 400.0 mg/kg/injection, schedule: Q01DX001 (ip), vehicle: saline 90 % of control

O=NC1C(Cl)C2CC1C1CCCC21 (stereo not drawn)
inactive: [2] 95 % of control | [17] 92 % of control | [4] 92 % of control | [18] 96 % of control | [6] 94 % of control

CC(C)=CCOC(N)=O
inactive: [2] 95 % of control | [4] 104 % of control | [6] 109 % of control

CCOC(CCC#N)c1ccccc1 (stereo not drawn)
inactive: [9] 95 % of control | dose: 125.0 mg/kg/injection, schedule: Q01DX009 (ip), vehicle: saline with Tween-80 113 % of control | [10] 98 % of control | dose: 235.0 mg/kg/injection, schedule: Q01DX009 (ip), vehicle: saline with Tween-80 96 % of control | [19] 92 % of control

CCOC(=O)c1ccc(N(CCC(=O)COC(C)=O)C(C)=O)cc1
inactive: [1] 94 % of control | [3] 100 % of control | [5] 102 % of control

CC(C)OP(=O)(OC(C)C)C1=C(P(=O)(OC(C)C)OC(C)C)C(F)(F)C(F)(F)C1(F)F
inactive: dose: 9.5 mg/kg/injection, schedule: Q01DX001 (ip), vehicle: other 106 % of control | dose: 19.0 mg/kg/injection, schedule: Q01DX001 (ip), vehicle: other 95 % of control | dose: 38.0 mg/kg/injection, schedule: Q01DX001 (ip), vehicle: other 89 % of control

CCN(CC)CCNC(C)=O
inactive: [16] 104 % of control | dose: 200.0 mg/kg/injection, schedule: Q04DX003 (ip), vehicle: saline 101 % of control | dose: 400.0 mg/kg/injection, schedule: Q04DX003 (ip), vehicle: saline 97 % of control

CCCCSCc1nc2nc(Cl)c(Cl)nc2[nH]1
inactive: [7] 96 % of control | [8] 98 % of control and 92 % of control | [9] 100 % of control | dose: 200.0 mg/kg/injection, schedule: Q01DX009 (ip), vehicle: saline with Tween-80 112 % of control | [10] 98 % of control | dose: 400.0 mg/kg/injection, schedule: Q01DX009 (ip), vehicle: saline with Tween-80 95 % of control and 96 % of control | [19] 98 % of control
